This note sets out measurements from EPA's ToxValDB 9.5.

Converted amounts (≈) assume the structure as drawn.

In one data set the test system is Anas platyrhynchos. The settings on record: oral, mortality.
For a further data set, the system named is Colinus virginianus. The settings on record: for LC50 / LD50: acute, oral; for LC50: diet.
The subject of a further data set is Bovidae. The settings on record: oral, diet.
The subject of a further data set is Gallus gallus. The settings on record: repeat dose other; reproduction.
For another data set, the system named is Sus scrofa. The settings on record: oral, Not specified.
For another data set, the system named is Apis mellifera. The following applies: acute, mortality.
The test system of another data set is Danio rerio. The following applies: acute; duration: 96 hours; mortality.
A further data set has as its system Pontoscolex corethrurus. The settings on record: chronic/long-term; growth.
The test system of another data set is Rattus norvegicus. The settings on record: for LD50: acute, mortality.
The test system of a further data set is Typhlodromus pyri. Description: LR50; higher = less toxic. The following applies: acute; mortality.
A further data set deals with Oryctolagus sp. The settings on record: oral, diet.
In a further data set the test system is Ovis sp. The settings on record: subchronic; oral; diet; gross pathology.
A further data set relates to Anatidae. The settings on record: short-term; duration: 28 days; oral; feed; no effects.
In a further data set the test system is Anser anser. The following applies: short-term; duration: 28 days; oral; feed; no effects.
The subject of another data set is Equus caballus. The following applies: short-term; duration: 21 days; no effects.
A further data set deals with Meleagris sp. The following applies: subchronic; duration: 12 weeks; oral; feed; no effects.

Turning to `CC[N+](CC)(CC(=O)Nc1c(C)cccc1C)Cc1ccccc1.O=C([O-])c1ccccc1` [Denatonium benzoate], the LC50 turned out to be 842 mg/kg-day in the data set on Anas platyrhynchos (short-term, feed) and 778 mg/kg-day in the data set with Colinus virginianus (mortality). For the same compound, the LD50 in the data set with Colinus virginianus (mortality) came out at 196 mg/kg. Also, the NOEC in the data set on Daphnia magna (chronic/long-term, duration: 21 days, reproduction) was found to be 5 mg/L.
Regarding `ClC1=C(Cl)C2(Cl)C3C(Cl)C=CC3C1(Cl)C2(Cl)Cl` (stereo unspecified) [Heptachlor], the no-observed-adverse-effect level (NOAEL) in the data set on Bovidae (subchronic, F) worked out at 6 mg/kg-day. This compound also came in with an LOAEL in the data set with Gallus gallus of 0.01 mg/kg-day. In the data set on Sus scrofa (subchronic, duration: 78 days, histopathology: nonneoplastic), this compound showed an LEL of 2 mg/kg-day.
Take `C/C=C/c1ccc(O)c(OC)c1` [Isoeugenol]: in the data set with Daphnia magna (acute), the NOEC amounted to 0.4 mg/L. In the data set with Mus musculus (chronic, duration: 2 years, M, histopathology: neoplastic), this compound registered an LOAEL of 75 mg/kg-day.
As for `OC[C@H]1OC(O[C@H]2[C@H](O)[C@@H](CO)OC(O[C@H]3[C@H](O)[C@@H](CO)OC(O)[C@@H]3O)[C@@H]2O)[C@H](O)[C@@H](O)[C@@H]1O` (stereo partly specified) [Laminaran], the LD50 was greater than 100 µg/piece with Apis mellifera (dermal); greater than 119 µg/piece with Apis mellifera (oral, unspecified); greater than 1700 mg/kg-day with Colinus virginianus (mortality); greater than 2000 mg/kg-day with Rattus norvegicus (oral). In the data set with Colinus virginianus (chronic, mortality), this compound showed an LEL greater than 170 mg/kg-day. The compound also displayed an LC50 with Danio rerio greater than 71.3 µg/mL. The NOEC with Pontoscolex corethrurus came out at 262 mg/kg. The compound also came in with a no observed adverse effect level (NOAEL) in the data set with Rattus norvegicus (subchronic, duration: 90 days, oral, no effects) of 1000 mg/kg-day. Moreover, the LR50 with Typhlodromus pyri was 115 g/ha.
In the case of `CO[C@@H]1[C@@H](OC)[C@H](C)[C@@](O)(CC(=O)O)O[C@H]1[C@H](C)[C@H]1O[C@@]2(CC[C@@](C)([C@H]3CC[C@@](C)([C@@H]4O[C@@H]([C@H]5O[C@](C)(O)[C@H](C)C[C@@H]5C)C[C@@H]4O[C@@H]4C[C@H](OC)[C@@H](OC)[C@H](C)O4)O3)O2)C[C@H](O)[C@H]1C.N` [Maduramicin ammonium], the LEL in the data set on Bovidae (short-term, duration: 28 days, no effects) was 0.15 mg/kg-day; in the data set on Ovis sp., no less than 2.5 mg/kg-day; with Sus scrofa (repeat dose other, diet, mortality), 37.5 mg/kg-day. For the same compound, the no observed adverse effect level (NOAEL) in the data set on Canidae (acute, duration: 3 hours, M/F, Beagle, no effects) is no less than 0.1 mg/kg-day; with Rattus norvegicus (chronic, duration: 2 years, oral, diet, M/F, organ weight) it was 0.12 mg/kg-day; in the data set on Rattus norvegicus (reproduction developmental, M/F, body weight), 0.1 mg/kg-day. The compound also registered an LOAEL in the data set on Oryctolagus sp. (short-term, duration: 2 weeks, mortality) of 0.075 mg/kg-day. Besides, the NOEL in the data set on Rattus norvegicus (chronic, duration: 2 years, oral, diet) stood at 0.16 mg/kg-day.
`C#CCOc1ccc(CCNC(=O)C(OCC#C)c2ccc(Cl)cc2)cc1OC` (stereo unspecified) [Mandipropamid]: the LD50 is greater than 1000 mg/kg-day with Anas platyrhynchos (acute, unspecified) and greater than 5000 mg/kg-day with Rattus norvegicus (oral). The no-observed-adverse-effect level (NOAEL) with Canidae (subchronic, duration: 90 days, oral, Dog Other, body weight) was 25 mg/kg-day; in the data set with Rattus norvegicus (chronic, duration: 2 years, body weight), 15.2 mg/kg-day. In the data set with Colinus virginianus (mortality), this compound registered an LC50 greater than 2140 mg/kg-day. For the same compound, the NOEL was 83.6 mg/kg-day in the data set with Colinus virginianus (reproduction developmental) and 20 mg/kg-day with Rattus norvegicus (chronic, body weight).
On to `CSSC` [Methyl disulfide], for which the LD50 in the data set with Apis mellifera (dermal) was greater than 100 µg/piece; with Colinus virginianus (mortality), 342 mg/kg; with Rattus norvegicus (oral), greater than 125 mg/kg. Moreover, the NOAEC in the data set on Rattus norvegicus (reproduction developmental, body weight) was found to be 5 ppm; with Rattus norvegicus (reproduction developmental, inhalation, no effects), 308 mg/m3; with Rattus norvegicus (subchronic, duration: 90 days, inhalation, body weight), 77 mg/m3.
Regarding `CO[C@@H]1[C@@H](O)[C@H](C)[C@@](O)(CC(=O)[O-])O[C@H]1[C@H](C)[C@H]1O[C@@]2(CC[C@@](C)([C@H]3CC[C@@](C)([C@@H]4O[C@@H]([C@H]5O[C@](C)(O)[C@H](C)C[C@@H]5C)C[C@@H]4O[C@H]4CC[C@H](OC)[C@@H](C)O4)O3)O2)C[C@H](O)[C@H]1C.[Na+]` [Semduramicin sodium], the LEL with Anatidae amounted to 25 mg/kg; in the data set on Anser anser, 25 mg/kg; with Equus caballus, 0.25 mg/kg-day; in the data set on Meleagris sp., 25 mg/kg; in the data set on Oryctolagus sp. (subchronic, duration: 42 days, M/F, no effects), 25 mg/kg-day. Further, the no observed adverse effect level (NOAEL) with Canidae (chronic, duration: 12 months, Dog Other, histopathology: nonneoplastic) was found to be 0.3 mg/kg-day; in the data set with Rattus norvegicus (chronic, duration: 2 years, oral, diet, clinical chemistry) it was 0.125 mg/kg-day.
On to `O=S(=O)(F)F` [Sulfuryl fluoride], for which the LC50 with Danio rerio amounted to 0.89 µg/mL (≈ 8.72 µM); with Mus musculus (acute, inhalation, mortality), 1.67 µg/mL (≈ 16.4 µM). Moreover, the NOAEL in the data set on Rattus norvegicus (chronic, duration: 2 years, histopathology: nonneoplastic) turned out to be 20 mg/kg-day; in the data set with Rattus norvegicus (subchronic, duration: 90 days, inhalation, histopathology: nonneoplastic), 100 mg/kg-day. In the data set with Rattus norvegicus (short-term, duration: 2 days, F, Fischer 344), this compound yielded an NOEL of 300 mg/kg-day.
